Measured values published in patent US20240409585A1, “MACROCYCLIC IMMUNOMODULATORS” (priority 2021, published 2024).
Bridge positions count the residues as written; N and C are the ends. Square brackets hold non-standard residues; d marks the D form. Peptide text beside a SMILES is read from it. * marks the point of attachment. ξ: configuration not given here. Phe(4-COOH) = N[C@@H](Cc1ccc(C(=O)O)cc1)C(=O)O; Bip = N[C@@H](Cc1ccc(-c2ccccc2)cc1)C(=O)O; NMeW = CN[C@@H](Cc1c[nH]c2ccccc12)C(=O)O; Phe(3-Me) = Cc1cccc(C[C@H](N)C(=O)O)c1; Dopa = N[C@@H](Cc1ccc(O)c(O)c1)C(=O)O; Bta = N[C@@H](Cc1csc2ccccc12)C(=O)O; 4Pal = N[C@@H](Cc1ccncc1)C(=O)O; Cha = N[C@@H](CC1CCCCC1)C(=O)O; Ile(3ξ) = CCC(C)[C@H](N)C(=O)O; Carboxymethyl = O=C(O)C*; NMeA = CN[C@@H](C)C(=O)O; Orn = NCCC[C@H](N)C(=O)O; Dab = NCC[C@H](N)C(=O)O; Dap = NC[C@H](N)C(=O)O

The compounds below were run against T1, PE-labeled human PD-L1-Ig binding to Jurkat cell line over-expressing human PD-1 (Jurkat-PD-1) (Homo sapiens, UniProt Q15116) (assay: Jurkat-PD-1 Cell Binding High-Content Screening Assay (CBA): Method 1). Details: Jurkat HPDL1 PD1 IC50 (uM) (Method 1), Jurkat-hPD-1 cells, PE-labeled PD-L1-Ig 20 nM final.
T1 construct: expressed in transfected cells; host or cells: Jurkat
T1 sequence (Q15116 25-288): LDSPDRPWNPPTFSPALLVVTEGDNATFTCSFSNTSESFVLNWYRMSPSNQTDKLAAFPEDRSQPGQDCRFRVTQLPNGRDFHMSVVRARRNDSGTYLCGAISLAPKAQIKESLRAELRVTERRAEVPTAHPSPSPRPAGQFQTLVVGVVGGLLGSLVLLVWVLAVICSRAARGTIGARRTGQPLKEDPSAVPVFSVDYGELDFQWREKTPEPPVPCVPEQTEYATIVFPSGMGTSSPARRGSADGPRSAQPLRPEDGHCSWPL

SMILES | IC50 [µM]
CC(C)C[C@@H]1NC(=O)[C@H](CCN)NC(=O)[C@@H](CC(C)C)NC(=O)[C@H](C)N(C)C(=O)[C@H](C(C)C)NC(=O)[C@H](Cc2ccc(-c3ccccc3)cc2)NC(=O)[C@H](C(C)C)NC(=O)[C@H](Cc2c[nH]c3ccccc23)NC(=O)[C@H](CC(=O)O)NC(=O)[C@H](Cc2ccncc2)NC(=O)[C@H](CN)NC(=O)CSC[C@@H](C(=O)N[C@@H](C)C(N)=O)NC(=O)[C@H]([C@@H](C)O)NC(=O)[C@H](C(C)C)NC1=O [Compound 1542] ({CH2CO}-[Dap][4Pal]DWV[Bip]V[NMeA][dL][Dab]LVTCA-NH2; thioether N-14) | 0.04

Same assay, conditions: Jurkat-hPD-1 cells, PE-labeled PD-L1-Ig 20 nM final; read-out: Jurkat HPDL1 PD1 IC50 (uM) (Method 1)

IC50 [µM] | SMILES
0.03 | CC[C@H](C)[C@@H]1NC(=O)[C@H](Cc2ccc(-c3ccccc3)cc2)NC(=O)[C@H](C(C)C)NC(=O)[C@H](Cc2c[nH]c3ccccc23)NC(=O)[C@H](CC(=O)O)NC(=O)[C@H](Cc2ccncc2)NC(=O)[C@H](CN)NC(=O)CSC[C@@H](C(=O)N[C@@H](C)C(N)=O)NC(=O)[C@H]([C@@H](C)O)NC(=O)[C@H](C(C)C)NC(=O)[C@H](CC(C)C)NC(=O)[C@H](CCN)NC(=O)[C@@H](CC(C)C)NC(=O)[C@H](C)N(C)C1=O [Compound 1405] ({CH2CO}-[Dap][4Pal]DWV[Bip]I[NMeA][dL][Dab]LVTCA-NH2; thioether N-14)
0.01 | CC(C)C[C@@H]1NC(=O)[C@H](Cc2c[nH]c3ccccc23)NC(=O)[C@H](CC(=O)O)NC(=O)[C@H](Cc2ccc(O)c(O)c2)NC(=O)[C@H](Cc2ccccc2)NC(=O)CSC[C@@H](C(=O)N[C@@H](C)C(N)=O)NC(=O)[C@H](CO)NC(=O)[C@H](C(C)C)NC(=O)[C@H](CC(C)C)NC(=O)[C@H](CC(N)=O)NC(=O)[C@@H](C)NC(=O)[C@H](C)N(C)C(=O)[C@H](C(C)C)NC(=O)[C@H](Cc2ccc(-c3ccccc3)cc2)NC1=O [Compound 1724] ({CH2CO}-F[Dopa]DWL[Bip]V[NMeA][dA]NLVSCA-NH2; thioether N-14)
0.02 | CC(C)C[C@@H]1NC(=O)[C@H](Cc2c[nH]c3ccccc23)NC(=O)[C@H](CC(=O)O)NC(=O)[C@H](Cc2ccc(O)cc2)NC(=O)[C@H](Cc2ccccc2)NC(=O)CSC[C@@H](C(=O)NCC(N)=O)NC(=O)[C@H]([C@@H](C)O)NC(=O)[C@H](C(C)C)NC(=O)[C@H](CC(C)C)NC(=O)[C@H](CC(N)=O)NC(=O)[C@@H](CC(C)C)NC(=O)[C@H](C)N(C)C(=O)[C@H](C(C)C)NC(=O)[C@H](Cc2ccc(-c3ccccc3)cc2)NC1=O [Compound 1466] ({CH2CO}-FYDWL[Bip]V[NMeA][dL]NLVTCG-NH2; thioether N-14)
0.01 | CC(C)C[C@@H]1NC(=O)[C@H](Cc2c[nH]c3ccccc23)NC(=O)[C@H](CC(=O)O)NC(=O)[C@H](Cc2ccc(OCC(=O)O)cc2)NC(=O)[C@H](Cc2ccncc2)NC(=O)CSC[C@@H](C(=O)N[C@@H](C)C(N)=O)NC(=O)[C@H](CO)NC(=O)[C@H](C(C)C)NC(=O)[C@H](CC(C)C)NC(=O)[C@H](CC(N)=O)NC(=O)[C@@H](CC(C)C)NC(=O)[C@H](C)N(C)C(=O)[C@H](C(C)C)NC(=O)[C@H](Cc2ccc(-c3ccccc3)cc2)NC1=O [Compound 1592] ({CH2CO}-[4Pal]Y(Carboxymethyl)DWL[Bip]V[NMeA][dL]NLVSCA-NH2; thioether N-14)
0.06 | CC(C)C[C@@H]1NC(=O)[C@H](Cc2c[nH]c3ccccc23)NC(=O)[C@H](CC(=O)O)NC(=O)[C@H](Cc2ccc(O)cc2)NC(=O)[C@H](Cc2ccccc2)NC(=O)CSC[C@@H](C(=O)NCC(N)=O)NC(=O)[C@H](CO)NC(=O)[C@H](C(C)C)NC(=O)[C@H](CC(C)C)NC(=O)[C@H](CC(N)=O)NC(=O)[C@@H](CC(C)C)NC(=O)[C@H](C)N(C)C(=O)[C@H](CCC(=O)O)NC(=O)[C@H](Cc2ccc(-c3ccccc3)cc2)NC1=O [Compound 1510] ({CH2CO}-FYDWL[Bip]E[NMeA][dL]NLVSCG-NH2; thioether N-14)
0.13 | CC(C)C[C@@H]1NC(=O)[C@H](CCN)NC(=O)[C@@H](CC(C)C)NC(=O)[C@H](Cc2c[nH]c3ccccc23)N(C)C(=O)[C@H](C(C)C)NC(=O)[C@H](Cc2ccc(-c3ccccc3)cc2)NC(=O)[C@H](C(C)C)NC(=O)[C@H](Cc2c[nH]c3ccccc23)NC(=O)[C@H](CC(=O)O)NC(=O)[C@H](Cc2ccc(O)cc2)NC(=O)[C@H](CC(N)=O)NC(=O)CSC[C@@H](C(=O)N[C@@H](C)C(N)=O)NC(=O)[C@H]([C@@H](C)O)NC(=O)[C@H](C(C)C)NC1=O [Compound 1368] ({CH2CO}-NYDWV[Bip]V[NMeW][dL][Dab]LVTCA-NH2; thioether N-14)
0.01 | CCC(C)[C@@H]1NC(=O)[C@H](Cc2ccc(-c3ccccc3)cc2)NC(=O)[C@H](C(C)C)NC(=O)[C@H](Cc2cccc(C)c2)NC(=O)[C@H](CC(=O)O)NC(=O)[C@H](Cc2ccc(C(=O)O)cc2)NC(=O)[C@H](Cc2ccncc2)NC(=O)CSC[C@@H](C(N)=O)NC(=O)[C@H](CCCN)NC(=O)[C@H](C(C)C)NC(=O)[C@H](CC2CCCCC2)NC(=O)[C@H](CCN)NC(=O)[C@@H](CC(C)C)NC(=O)[C@H](C)N(C)C1=O (stereo partly drawn) [Compound 1899] ({CH2CO}-[4Pal][Phe(4-COOH)]D[Phe(3-Me)]V[Bip][Ile(3ξ)][NMeA][dL][Dab][Cha]V[Orn]C-NH2; thioether N-14)
0.01 | CC(C)C[C@H]1NC(=O)[C@H](C)N(C)C(=O)[C@H](C(C)C)NC(=O)[C@H](Cc2ccc(-c3ccccc3)cc2)NC(=O)[C@H](C(C)C)NC(=O)[C@H](Cc2c[nH]c3ccccc23)NC(=O)[C@H](CC(=O)O)NC(=O)[C@H](Cc2ccncc2)NC(=O)[C@H](Cc2ccc(OCC(=O)O)cc2)NC(=O)CSC[C@@H](C(N)=O)NC(=O)[C@H](CO)NC(=O)[C@H](C(C)C)NC(=O)[C@H](CC2CCCCC2)NC(=O)[C@H](CCCCN)NC1=O [Compound 2245] ({CH2CO}-Y(Carboxymethyl)[4Pal]DWV[Bip]V[NMeA][dL]K[Cha]VSC-NH2; thioether N-14)
0.2 | CC(C)C[C@@H]1NC(=O)[C@H](CCCNC(=N)N)NC(=O)[C@@H](CC(C)C)NC(=O)[C@H](C)N(C)C(=O)[C@H](CCCNC(=N)N)NC(=O)[C@H](Cc2ccc(-c3ccccc3)cc2)NC(=O)[C@H](C(C)C)NC(=O)[C@H](Cc2c[nH]c3ccccc23)NC(=O)[C@H](CC(=O)O)NC(=O)[C@H](Cc2ccc(O)cc2)NC(=O)[C@H](CC(N)=O)NC(=O)CSC[C@@H](C(=O)N[C@@H](C)C(N)=O)NC(=O)[C@H]([C@@H](C)O)NC(=O)[C@H](C(C)C)NC1=O [Compound 1045] ({CH2CO}-NYDWV[Bip]R[NMeA][dL]RLVTCA-NH2; thioether N-14)
0.24 | CC(C)C[C@@H]1NC(=O)[C@H](CCN)NC(=O)[C@H](Cc2csc3ccccc23)NC(=O)[C@H](C)N(C)C(=O)[C@H](CCC(=O)O)NC(=O)[C@H](Cc2ccc(-c3ccccc3)cc2)NC(=O)[C@H](C(C)C)NC(=O)[C@H](Cc2c[nH]c3ccccc23)NC(=O)[C@H](CC(=O)O)NC(=O)[C@H](Cc2ccc(O)cc2)NC(=O)[C@H](Cc2ccccc2)NC(=O)CSC[C@@H](C(=O)N[C@@H](C)C(N)=O)NC(=O)[C@H]([C@@H](C)O)NC(=O)[C@H](C(C)C)NC1=O [Compound 1143] ({CH2CO}-FYDWV[Bip]E[NMeA][Bta][Dab]LVTCA-NH2; thioether N-14)
0.09 | CC(C)C[C@@H]1NC(=O)[C@H](CCN)NC(=O)[C@@H](CC(C)C)NC(=O)[C@H](C)N(C)C(=O)[C@H](CCCNC(=N)N)NC(=O)[C@H](Cc2ccc(-c3ccccc3)cc2)NC(=O)[C@H](C(C)C)NC(=O)[C@H](Cc2c[nH]c3ccccc23)NC(=O)[C@H](CC(=O)O)NC(=O)[C@H](Cc2ccc(O)cc2)NC(=O)[C@H](CC(N)=O)NC(=O)CSC[C@@H](C(=O)N[C@@H](C)C(N)=O)NC(=O)[C@H](CCCN)NC(=O)[C@H](C(C)C)NC1=O [Compound 1242] ({CH2CO}-NYDWV[Bip]R[NMeA][dL][Dab]LV[Orn]CA-NH2; thioether N-14)
0.01 | Cc1cccc(C[C@@H]2NC(=O)[C@H](CC(=O)O)NC(=O)[C@H](Cc3ccncc3)NC(=O)[C@H](Cc3ccc(OCC(=O)O)cc3)NC(=O)CSC[C@@H](C(=O)N[C@@H](CCC(=O)O)C(N)=O)NC(=O)[C@H](CO)NC(=O)[C@H](C(C)C)NC(=O)[C@H](CC(C)C)NC(=O)[C@H](CC(N)=O)NC(=O)[C@@H](CC(C)C)NC(=O)[C@H](C)N(C)C(=O)[C@H](C(C)C)NC(=O)[C@H](Cc3ccc(-c4ccccc4)cc3)NC(=O)[C@H](CC(C)C)NC2=O)c1 [Compound 1603] ({CH2CO}-Y(Carboxymethyl)[4Pal]D[Phe(3-Me)]L[Bip]V[NMeA][dL]NLVSCE-NH2; thioether N-14)
0.05 | CC[C@H](C)[C@@H]1NC(=O)[C@H](Cc2ccc(-c3ccccc3)cc2)NC(=O)[C@H](C(C)C)NC(=O)[C@H](Cc2c[nH]c3ccccc23)NC(=O)[C@H](CC(=O)O)NC(=O)[C@H](Cc2ccc(O)cc2)NC(=O)[C@H](Cc2ccccc2)NC(=O)CSC[C@@H](C(=O)N[C@@H](C)C(N)=O)NC(=O)[C@H]([C@@H](C)O)NC(=O)[C@H](C(C)C)NC(=O)[C@H](CC2CCCCC2)NC(=O)[C@H](CCCNC(=N)N)NC(=O)[C@@H](CC(C)C)NC(=O)[C@H](C)N(C)C1=O [Compound 1494] ({CH2CO}-FYDWV[Bip]I[NMeA][dL]R[Cha]VTCA-NH2; thioether N-14)
0.53 | COc1ccc(C[C@H]2NC(=O)[C@H](C)N(C)C(=O)[C@H](CCCNC(=N)N)NC(=O)[C@H](Cc3ccc(-c4ccccc4)cc3)NC(=O)[C@H](C(C)C)NC(=O)[C@H](Cc3c[nH]c4ccccc34)NC(=O)[C@H](CC(=O)O)NC(=O)[C@H](Cc3ccc(O)cc3)NC(=O)[C@H](Cc3ccccc3)NC(=O)CSC[C@@H](C(=O)N[C@@H](C)C(N)=O)NC(=O)[C@H]([C@@H](C)O)NC(=O)[C@H](C(C)C)NC(=O)[C@H](CC(C)C)NC(=O)[C@H](CCCNC(=N)N)NC2=O)cc1 [Compound 1108] ({CH2CO}-FYDWV[Bip]R[NMeA][dY](Me)RLVTCA-NH2; thioether N-14)
